{
  "source": "patent US20180214400A1",
  "about": "“THE USE OF KAURANES COMPOUNDS IN THE MANUFACTURE OF MEDICAMENT FOR TREATMENT OF CADIAC HYPERTROPY AND PULMONARY HYPERTENSION” (KEY-PHARMA BIOMEDICAL INC., priority 2015, published 2018)",
  "key": {"TAC rats": {"system": "TAC rats", "assay": "Left ventricular pressure-volume relationship in TAC rats", "format": "in vivo", "details": "3 or 9 weeks", "protocol": "The left ventricular pressure and volume were measured simultaneously. Tow parameters can be derived by studying of the relationship of pressure-volume during changes of either preload or afterload. ESPVR, the slope of end-systolic pressure-volume relationships which represent end-systolic elastics; EDPVR, the slope of end-diastolic pressure-volume relationship which, represents cardiac stiffness. In hypertrophy hearts after 3 or 9 weeks TAC, the cardiac pump dysfunction was manifested by a significant decreased ESPVR and increased in EDPVR. […] Therefore, compound A are useful to preserve a normal elasticity during contraction and reduce diastolic stiffness of hearts with high pressure load as in TAC rats.\nHeart hemodynamic Analysis was conducted by pressure-volume (PV) catheter. Rats were anesthetized and placed on a warming pad (37° C.). Underwent tracheostomy, rats were then ventilated by using a positive pressure with a tidal volume of 4-6 ml/200 g at 70 breaths/min using room air. […] After stabilization of the signal for 10-15 min, baseline PV loops were recorded at a steady state. […] After data were recorded under steady-state conditions and during preload reduction, parallel conductance values were obtained by the injection of 40 μl hypertonic saline (30%) into the right jugular vein. […] Data were recorded on separate channels of the PowerLab system. […]"}, "[1]": {"system": "ROS (reactive oxygen species)", "assay": "ROS in cytosol and mitochondria of cardiomyocytes", "format": "cell-based", "details": "cardiomyocytes hypertrophy", "excerpt": "In this invention, we disclosed that compound A could suppress cardiomyocytes hypertrophy by reducing ROS (reactive oxygen species) in either cytosol and mitochondria in addition to the inhibition of PED, while classic PED inhibitor such as sildenafil has no such effects been reported in prior arts. This explains the superiority of compound A over sildenafil in suppressing hypertrophy and other diseases. This invention disclosed a new use of compound A as PED inhibitor with novel mechanism which is different than what been disclosed in prior art."}, "male rats": {"system": "male rats", "assay": "Penile erection in male rats", "format": "in vivo", "details": "relative higher dose"}, "sarcolemma KATP channel": {"system": "sarcolemma KATP channel", "assay": "Sarcolemma KATP channel effect", "excerpt": "This invention disclosed exclusively that compound A per se had no effect on either sarcolemma or mitochondrial KATP channel. Instead, compound A is acting only as a sensitizer which render the KATP channel response greater to known KATP channel openers, such as pinacidil and to change of ATP."}, "[2]": {"system": "hypertrophy cardiomyocytes", "assay": "Cytosol Ca++ in hypertrophy cardiomyocytes", "format": "cell-based", "excerpt": "This invention disclosed a novel use of inotropic medicine selectively that is compound A can be used to improve the cardiac function in a deteriorative hypertrophy heart without increase cytosol Ca++ or oxygen consumption. In addition it was not worsening the ECG instead it improve the ECG in hypertrophy heart. This is due to that compound A can reduce cardiomyocytes cytosol Ca++ level but enhance only the peak of Ca++ transient during each contraction in hypertrophy cardiomyocytes. This novel finding makes compound A different from other known traditional inotropic medicine such digitalis and beta agonists such as epinephrine."}, "[3]": {"system": "cardiomyocyte from guinea pig", "assay": "Electrophysiology in guinea pig cardiomyocyte after ischemia and reperfusion", "format": "cell-based", "excerpt": "This invention also disclosed that in cardiomyocyte from guinea pig, that compound A can reduce elongated QT segment and increased QT variations, further it prevent prolonged action potential, decrease resting potential and suppressed Herg (Ikr) currents as result of ischemia and reperfusion. Compound A can also as an scavenger to reduce ROS (reactive oxygen species). Therefore, it can be used for treatment of abnormal ECG in clinic diagnosed with above or used for diseases or clinic procedures which may involve above mentioned mechanism."}, "[4]": {"system": "cerebral I/R injured rats", "assay": "Late phase cerebral I/R injury (7 days) in rats", "format": "in vivo", "details": "7 days after I/R", "protocol": "Reactive astrogliosis is a common pathological process in late phase of cerebral I/R injury, which contributes to further neuronal damages. It is also seen in neuronal degenerative disease such as Alzheimer's disease in the present invention, compound A given consecutively for 7 days in cerebral I/R injured rats. […] The therapeutic effects of either single or consecutive 7 treatments with compound A were Analyzed and compared at 7 days after I/R injury."}, "[5]": {"system": "acute ischemia-reperfusion heart injuries", "details": "cited from earlier work"}, "[6]": {"system": "cerebral ischemia/reperfusion (I/R) injury", "details": "within 24 hours; cited from earlier work"}, "[7]": {"system": "mice exposed to chronic transverse aortic constriction", "details": "cited from earlier work"}, "[8]": {"system": "hypoxia-induced PHT in rats", "details": "chronic hypoxia; cited from earlier work"}},
  "data": [
    {"compound": "C[C@@]12CC[C@@H]3[C@@](CC[C@H]4[C@@]3(C)CCC[C@@]4(C)C(=O)O)(CC1=O)C2", "note": "[Compound A, (4α,8β,13β)-13-methyl-16-oxo-17-norkauran-18-oic acid]", "values": [
      {"measurement": "deteriorations in ESPVR and EDPVR", "setting": "TAC rats", "result": "prevented the deteriorations"},
      {"measurement": "ROS in cytosol and mitochondria", "setting": "[1]", "result": "reducing"},
      {"measurement": "penile erection", "setting": "male rats", "result": "long lasting penile erection"},
      {"measurement": "effect on sarcolemma KATP channel per se", "setting": "sarcolemma KATP channel", "result": "had no effect"},
      {"measurement": "KATP channel response to known openers such as pinacidil and to change of ATP", "setting": "sarcolemma KATP channel; sarcolemma or mitochondrial not distinguished", "result": "sensitizer"},
      {"measurement": "cardiomyocytes cytosol Ca++ level", "setting": "[2]", "result": "reduce"},
      {"measurement": "peak of Ca++ transient during each contraction", "setting": "[2]", "result": "enhance"},
      {"measurement": "decrease resting potential", "setting": "[3]", "result": "prevent"},
      {"measurement": "elongated QT segment and increased QT variations", "setting": "[3]", "result": "reduce"},
      {"measurement": "prolonged action potential", "setting": "[3]", "result": "prevent"},
      {"measurement": "suppressed Herg (Ikr) currents", "setting": "[3]", "result": "prevent"},
      {"measurement": "I/R injury, consecutive 7 treatments comparing to single treatment", "setting": "[4]", "result": "significantly improved"},
      {"measurement": "accumulation of activated astrocytes", "setting": "[4]; consecutive treatments", "result": "significantly inhibited"},
      {"measurement": "infarct volume", "setting": "[4]; given consecutively for 7 days", "result": "reduction"},
      {"measurement": "neurological behavior and cellular morphology", "setting": "[4]; given consecutively for 7 days", "result": "improvement"},
      {"measurement": "neuronal survival", "setting": "[4]; given consecutively for 7 days", "result": "enhancement"},
      {"measurement": "cardioprotective effect and arrhythmia", "setting": "[5]", "result": "cardioprotective effect"},
      {"measurement": "protection against cerebral I/R injury", "setting": "[6]", "result": "protect"}
    ]},
    {"compound": "CCCc1nn(C)c2c(=O)[nH]c(-c3cc(S(=O)(=O)N4CCN(C)CC4)ccc3OCC)nc12", "note": "[sildenafil, reference compound]", "values": [
      {"measurement": "chamber and cardiomyocytes hypertrophy", "setting": "[7]", "result": "suppresses"},
      {"measurement": "rise in pulmonary artery pressure and vascular remodeling", "setting": "[8]", "result": "attenuated"}
    ]}
  ]
}
